US12404232B2, “Compounds and compositions for intracellular delivery of therapeutic agents” (ModernaTX, Inc., priority 2015, dated 2025)

Columns and labels:
mice [1] = assay: Luc expression (total flux) after intramuscular administration; format: in vivo; conditions: 6 hours after intramuscular administration, Luc mRNA and H10 mRNA
rat = assay: Clinical chemistry and hematology in rat after intravenous administration; format: in vivo; parameters: unit not given here; conditions: 2 mpk, 48 h post dose
Experimental: Sample formulations of nanoparticle compositions including different lipids were administered intravenously to rat at a dose of 2 mpk. The expression of various clinical markers was evaluated at 48 h post dose and compared to that induced by administration of MC3 formulations or phosphate buffered saline (PBS).
(§1) Table 19 summarizes the hEPO expression, IP-10 induction, liver and spleen levels, and alanine aminotransferase (ALT) and aspartate aminotransferase (AST) measured upon intravenous administration of formulations including Compounds 48, 49, and 50 to rat at 0.2 and 2 mpk and hEPO mRNA. hEPO concentrations were measured 6 hours after administration, while cytokine induction and liver and spleen levels were measured 48 hours after administration. hEPO and IP-10 concentrations are presented in pg/ml, while liver levels are provided in ng/g. ALT and AST levels are presented in international units.

rats [2] = assay: Cytokine induction (IP-10) in rats after intravenous administration; format: in vivo; conditions: rat, 6 hours after administration of hEPO nanoparticle compositions, 2.0 mpk
Experimental: The expression of hEPO and cytokine induction in rats intravenously administered a nanoparticle composition at a dose of 2.0 mpk was measured at 6 h.
as §1

rats [3] = assay: Residual lipid levels in liver and spleen of rats (UPLC-MS quantification); format: in vivo, rat; conditions: rats, 2 mpk, 48 h; assuming 300 g rat and 15 g liver
Experimental: At 48 h liver tissue was harvested for lipid quantification. To pre-weighed tissues, Milli-Q water was added (900 μL water per 100 mg tissue). Tissues were homogenized using an Omni probe homogenizer until uniform. 50 μL of samples and matrix calibration standards were aliquoted into a 96-well plate. 50 μL of blank matrix for matrix blanks and control blanks were aliquoted. 400 μL IS spiking solution were manually added to all samples except matrix blanks. 400 μL of 50:50 ACN:IPA were manually added to matrix blanks. The plate was covered and the samples vortexed and centrifuged for 5 minutes at >3000 rpm. 200 μL of the samples were transferred into a clean 96-well plate for analysis. Samples were analyzed on a Waters Acquity UPLC using a Higgins Analytical Clipeus C8 column ([…], 30×2.1 mm) and a gradient of either 70-95% or 60-95% (Mobile Phase A: 5 mM ammonium formate in 50:50:1 H2O:MeOH:formic acid; Mobile Phase B: 5 mM ammonium formate in 100:1 MeOH:formic acid) over 1.3 min at 1.2 mL/min (column temperature 55° C.). Detection was based on electrospray ionization (ESI) in positive mode using a Sciex API5500 Mass Spectrometer.
The expression of hEPO in rats intravenously administered a nanoparticle composition at a dose of 0.2 mpk or 2.0 mpk was measured at 6 hours. Table 16 summarize the ratio of hEPO expression levels using various nanoparticle compositions as compared to the hEPO expression level using MC3 formulation and the lipid levels in the liver measured 48 hours after administration, as described above. Tables 17 and 18 summarize the lipid levels in the liver and spleen measured 48 hours after administration of Compounds 28, 33, 53, and 54. Liver and spleen levels represent the average values calculated for 3 rats in each group. As is shown in Tables 17 and 18, less than 10% of Compounds 28, 33, 53, and 54 remained in the liver after 48 hours, while greater than 60% of MC3 remained.
as §1
The expression of hEPO induced by intravenous administration to rats of nanoparticle compositions at various doses was measured at 2, 4, 6, 8, 24, and 48 hour time points. FIGS. 3-6 respectively summarize the hEPO expression measured upon intravenous administration of formulations including Compounds 26, 18, 25, and MC3 to rat at various doses. The lipid levels of Compound 26 in the liver after 48 hours were about 19%.
The expression of hEPO and lipid levels in the liver and spleen in rats intravenously administered a nanoparticle composition at a dose of 0.2 mpk was measured at various timepoints. Compounds 18 and 25 were selected for comparison with MC3. Lipids were formulated according to the standard MC3 formulation described above. Rats were administered intravenously a single 0.2 mpk dose and expression monitored at 0.25, 0.5, 1, 2, 4, 8, 24, and 48 hours after administration.

mice [4] = assay: Cytokine induction (IL-6, IP-10) in mice after intravenous administration; format: in vivo; parameters: IL-6 / IP-10: unit not given here; conditions: 0.5 mpk, 6 hours
Method in brief: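 Nanoparticle compositions given intravenously to mice at 0.5 mpk; serum cytokine concentrations measured at 6 hours, with MC3 formulation and PBS as comparators.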

[5] = Particle size and polydispersity index of nanoparticle compositions (Zetasizer Nano ZS); format: physicochemical; conditions: for PDI: nanoparticle composition 50:10:38.5:1.5 mol % (Table 1A); for Size (nm): nanoparticle composition lipid:DSPC:cholesterol:PEG-DMG 50:10:38.5:1.5 mol %, mRNA encoding Luc or hEPO (Table 1A)
Method in brief: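 Particle size and PDI by Zetasizer Nano ZS dynamic light scattering in 1×PBS. Lipid nanoparticles carried mRNA (luciferase or hEPO) with ionizable lipid:DSPC:cholesterol:PEG-DMG at 50:10:38.5:1.5 mol %.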

mice [6] = assay: Luc expression (total flux) after intramuscular administration; format: in vivo; conditions: i.m., Luc, 6 h
[7] = Encapsulation of RNA by the nanoparticle composition (QUANT-IT RIBOGREEN RNA assay); format: physicochemical; conditions: nanoparticle composition 50:10:38.5:1.5 mol % (Table 1A)
Excerpt: The efficiency of encapsulation of a therapeutic and/or prophylactic describes the amount of therapeutic and/or prophylactic that is encapsulated or otherwise associated with a nanoparticle composition after preparation, relative to the initial amount provided. The encapsulation efficiency is desirably high (e.g., close to 100%). The encapsulation efficiency may be measured, for example, by comparing the amount of therapeutic and/or prophylactic in a solution containing the nanoparticle composition before and after breaking up the nanoparticle composition with one or more organic solvents or detergents. Fluorescence may be used to measure the amount of free therapeutic and/or prophylactic (e.g., RNA) in a solution. For the nanoparticle compositions described herein, the encapsulation efficiency of a therapeutic and/or prophylactic may be at least 50%, for example 50%, 55%, 60%, 65%, 70%, 75%, 80%, 85%, 90%, 91%, 92%, 93%, 94%, 95%, 96%, 97%, 98%, 99%, or 100%. In some embodiments, the encapsulation efficiency may be at least 80%. In certain embodiments, the encapsulation efficiency may be at least 90%.
For nanoparticle compositions including an RNA, a QUANT-IT™ RIBOGREEN® RNA assay (Invitrogen Corporation Carlsbad, CA) can be used to evaluate the encapsulation of an RNA by the nanoparticle composition. The samples are diluted to a concentration of approximately […] in a TE buffer solution (10 mM Tris-HCl, 1 mM EDTA, pH 7.5). 50 μL of the diluted samples are transferred to a polystyrene 96 well plate and either 50 μL of TE buffer or 50 μL of a 2% Triton X-100 solution is added to the wells. The plate is incubated at a temperature of 37° C. for 15 minutes. The RIBOGREEN® reagent is diluted 1:100 in TE buffer, and 100 μL of this solution is added to each well. The fluorescence intensity can be measured using a fluorescence plate reader (Wallac Victor 1420 Multilablel Counter; Perkin Elmer, Waltham, MA) at an excitation wavelength of, for example, about 480 nm and an emission wavelength of, for example, about 520 nm. The fluorescence values of the reagent blank are subtracted from that of each of the samples and the percentage of free RNA is determined by dividing the fluorescence intensity of the intact sample (without addition of Triton X-100) by the fluorescence value of the disrupted sample (caused by the addition of Triton X-100).
Initial studies were performed to compare the delivery efficiency of nanoparticle compositions including various compounds according to Formula (I), (IA), (II), (IIa), (IIb), (IIc), (IId) or (IIe). The cationic lipid MC3 is a current standard in the art. Accordingly, the standard MC3 formulation including about 50 mol % MC3, about 10 mol % DSPC, about 38.5 mol % cholesterol, and about 1.5 mol % PEG-DMG was used as a basis for this study. Nanoparticle compositions including DSPC as a phospholipid, cholesterol as a structural lipid, PEG-DMG as a PEG lipid, an RNA, and a compound according to Formula (I), (IA), (II), (IIa), (IIb), (IIc), (IId) or (IIe) selected from Compounds 1-159, 168-170, and 173-175 were prepared according to or via methods similar to those described in Examples 1 and 2. The ratios of the lipids were 50:10:38.5:1.5 mol % for the lipid according to Formula (I), (IA), (II), (IIa), (IIb), (IIc), (IId) or (IIe):DSPC:cholesterol:PEG-DMG. The RNA used was an mRNA encoding G5 luciferase (Luc) or G5 hEPO. Tables 1A-1B summarize the content and characteristics of the formulations. […]

Alanine aminotransferase (Concentration) (rat) | Aspartate aminotransferase (Concentration) (rat) | Lymphocytes (Concentration) (rat) | Monocytes (Concentration) (rat) | Neutrophils (Concentration) (rat) | IP-10 (rats [2]) | % Lipid Remaining in liver, 48 h* 2 mpk (rats [3]) | IL-6 (mice [4]) | IP-10 (mice [4]) | PDI [5] | Size (nm) [5] | EE (%) [7] | SMILES | Total flux (p/s) 0.001 mpk Dose (mice [1]) | Total flux (p/s) 0.01 mpk Dose (mice [1]) | i.m. Lipid/MC3 0.01 mpk, Luc, 6h (mice [6])
53.5 | 87.5 | 12051 | 2103 | 3388.5 | 542 pg/mL | 14% | – | – | – | – | – | CCCCCCCCCN(CCO)CCCCCCCC(=O)OC(CCCCCCCC)CCCCCCCC [Compound 3, Heptadecan-9-yl 8-((2-hydroxyethyl)(nonyl)amino)octanoate] | 3.58E+06 p/s | 4.95E+07 p/s | –
56 | 95 | 10408.5 | 877 | 3195 | 214.5 pg/mL | <0.01% | 152.51 | 1638.77 | – | – | – | CCCCCCCCCOC(=O)CCCCCCCN(CCO)CCCCCCCOC(=O)C(CCCCCCCC)CCCCCCCC [Compound 30, 7-((2-Hydroxyethyl)(8-(nonyloxy)-8-oxooctyl)amino)heptyl 2-octyldecanoate] | 2.47E+06 p/s | 3.77E+07 p/s | –

Further lines, the molecule ahead of its results:

SMILES | Alanine aminotransferase (Concentration) (rat) | Aspartate aminotransferase (Concentration) (rat) | Lymphocytes (Concentration) (rat) | Monocytes (Concentration) (rat) | Neutrophils (Concentration) (rat) | IP-10 (rats [2]) | % Lipid Remaining in liver, 48 h* 2 mpk (rats [3]) | IL-6 (mice [4]) | IP-10 (mice [4]) | PDI [5] | Size (nm) [5] | EE (%) [7] | Total flux (p/s) 0.001 mpk Dose (mice [1]) | Total flux (p/s) 0.01 mpk Dose (mice [1]) | i.m. Lipid/MC3 0.01 mpk, Luc, 6h (mice [6])
CCCCCC/C=C\COC(=O)CCCCCCCN(CCO)CCCCCCCC(=O)OC(CCCCCCCC)CCCCCCCC [Compound 24, Heptadecan-9-yl (Z)-8_((2-hydroxyethyl) (8-(non-2-en-1-yloxy)-8-oxooctyl)amino)octanoate] | 51.5 | 90 | 14100 | 1834 | 1790.5 | 323.5 pg/mL | 0.016% | 163.53 | 1172.93 | – | – | – | 3.78E+06 p/s | 3.97E+07 p/s | –
CCCCCCCCCOC(=O)CCCCCCCN(CCCCCCCC(=O)OC(CCCCCCCC)CCCCCCCC)CCCN1C(=O)CNC1=O [Compound 174, Heptadecan-9-yl 8-((3-(2,5-dioxoimidazolidin-1-yl)propyl)(8-(nonyloxy)-8-oxooctyl)amino)octanoate] | – | – | – | – | – | – | – | – | – | 0.12 | 61.4 nm | – | – | – | 0.2
CCCCCCCCCOC(=O)CCCCCCCN(CCCCCCCC(=O)OC(CCCCCCCC)CCCCCCCC)CCCOC(=O)NC [Compound 175, Heptadecan-9-yl 8-((3-((methylcarbamoyl)oxy)propyl)(8-(nonyloxy)-8-oxooctyl)amino)octanoate] | – | – | – | – | – | – | – | – | – | 0.2 | 65.4 nm | 93.23% | – | – | 0.1
